Reference: article PMC5988308, “Rhodanine derivatives as potent anti-HIV and anti-HSV microbicides” (PLoS ONE, 2018)
Like-named read-outs stand apart in the source and are kept apart here.

Columns and labels:
HPV-16 PsVs = assay: HPV-16 inhibition assay in HeLa cells; assay type: cell-based; details: up to 50 μM
Description: Plasmids and 293TT cells used for pseudovirus (PsV) production were kindly provided by John Schiller (National Cancer Institute, Bethesda, MD). 293TT cell line, derived from human embryonic kidney cells transformed with the simian virus 40 (SV40) large T antigen, was cultured in DMEM (Gibco-BRL, Gaithersburg, MD) supplemented with heat inactivated 10% FCS (Gibco- BRL), Glutamax-I 1% (Invitrogen, Carlsbad, CA) and nonessential amino acids 1% (Sigma Aldrich, Steinheim, Germany). HPV-16 PsVs were produced as described in Cagno et al 2015. 293TT cells were transfected with plasmid expressing the papillomavirus major and minor capsid proteins (L1 and L2, respectively), together with a reporter plasmid expressing GFP. Capsids were allowed to mature overnight in cell lysate; the clarified supernatant was then loaded on top of a density gradient of 27 to 33 to 39% Optiprep at room temperature for 3 h. The material was centrifuged at 28000 rpm for 16 h at 4°C in an SW41.1 rotor (Beckman Coulter, Inc., Fullerton, CA) and then collected by bottom puncture of the tubes. […] The L1 protein content of PsV stocks was determined by comparison with bovine serum albumin standards in Coomassie-stained SDS-polyacrylamide gels. […]

[1] = Storage stability and rheological characterization of gel; assay type: physicochemical; details: 50 μM, 25°C in the dark
Description: All the semi-solid formulations were prepared adding at the pre-gel solution reported above hydroxyethyl cellulose (HEC) (1.8% w/v). In all samples, 0.2% v/v propionic acid was added to aqueous solution in order to preserve form bacteria and mold contamination. HEC was dispersed in the pre-gel solution at 25°C under magnetic stirring, overnight. Gel containing compound 2 was stored at 25°C in the dark. At predetermined data points, the formulations were visually inspected to evidence aggregate formations and the pH was measured. Rheological evaluations were performed using a rotational viscometer (Bohlin Model Visco 88, Bohlin Instruments, UK). Appropriate measuring spindles (C14 DIN) were used during viscosity measurements. Samples were loaded into the cup and allowed to equilibrate for 10 min at desired temperature (25 ± 0.5°C) and apparent viscosity (mPa s) was determined using a shear rate of 552 s^-1 over a 1 month period.

HSV-1 = HSV-1 plaque reduction assay on Vero cells; assay type: cell-based; details: read-out: HSV-1 EC50, Vero cells
Description: Clinical isolates of HSV-1 and HSV-2 were kindly provided by Prof. M. Pistello, University of Pisa, Italy. HSV-1 and HSV-2 strains were propagated and titrated by plaque assay on Vero cells. A HSV-2 strain with phenotypic resistance to acyclovir was generated by serial passage in the presence of increasing concentrations of acyclovir, as previously described.
The effect of the rhodanine derivatives on HSV infection was evaluated by plaque reduction assay. Vero cells were pre-plated 24 h in advance in 24-well plates at a density of […]. Increasing concentrations of compounds were mixed with HSV-2 (MOI 0.001 pfu/cell) or HSV-2 acyclovir resistant (MOI 0.001) or HSV-1 (MOI 0.0005) or and incubated for 1 hour at 37°C. The mixtures were subsequently added to the cells, which were then incubated at 37°C for 2 h. The virus inoculum was then removed and the cells washed and overlaid with a medium containing 1.2% methylcellulose (Sigma). After further incubation at 37°C for 24 h (HSV-2 and HSV-2 R Acy) or 48 h (HSV-1), cells were fixed and stained with 0.1% crystal violet in 20% ethanol and viral plaques counted. The effective concentration producing 50% reduction (EC50) and 90% reduction (EC90) in plaque formation was determined using Prism software by comparing drug-treated with wells treated with medium and solvent. The selectivity index (SI) was calculated by dividing the CC50 by the EC50 value.
All results are presented as the mean values from three independent experiments. The EC50 values for inhibition curves were calculated by regression analysis using the software GraphPad Prism (GraphPad Software, San Diego, California, U.S.A.) by fitting a variable slope-sigmoidal dose–response curve. Acyclovir was purchased from Sigma Aldrich (Milan, Italy).

HIV-1 AD8 WT = assay: Antiviral activity on human CD4+ T lymphocytes, AD8 WT; assay type: cell-based; details: Human immunodeficiency virus 1; human CD4+ T lymphocytes; read-out: AD8 WT EC50
Description: (§1) The antiviral activity and cytotoxicity of compounds 2, 9e and 9f was tested also on freshly purified human CD4^+ T lymphocytes obtained from healthy blood donors (informed consent available) as described previously on HIV laboratory strain NL4.3 and AD8 [33, 34].

human CD4+ T lymphocytes = assay: Cytotoxicity on human CD4+ T lymphocytes; assay type: cell-based
Description: as §1

[2] = Cytotoxicity on human CD4+ T lymphocytes; assay type: cell-based
Description: as §1

[3] = test system: recombinant HIV-1 integrase Y143R; assay: Antiviral activity on human CD4+ T lymphocytes, integrase mutant Y143R; assay type: cell-based; details: Human immunodeficiency virus 1, read-out: Y143R EC50
HIV-1 AD8 = assay: Inhibition of antiviral activity by fetal bovine serum (TZM-bl, AD8); assay type: cell-based; details: FBS 0% to 10%
Description: To evaluate the binding of compounds to plasma proteins also in a cell based assay, the infection with the HIV laboratory strain AD8 was performed in absence or in presence of different concentrations of Fetal Bovine Serum (FBS): 2%, 5% and 10%. The representative compound 2 was pre-incubated at different concentrations ranging from 10 μM to 3.2 nM with 300 TCID50 /mL of AD8 in DMEM supplemented with 50 μg/mL penicillin, 50 μg/mL streptomycin, 30 μg/mL DEAE-dextran and FBS at the concentration described above. Maraviroc was used as control. After an hour the mixture was added to 40.000 TZM-bl cells/well plated in a 96-well plate and after two days the infection was quantified using a CPRG assay (Roche) as previously described.

Row | Structure (SMILES) | antiviral activity on HPV-16 (HPV-16 PsVs) | recovery after 1 month of storage [1] | EC50 (HSV-1; Human alphaherpesvirus 1, Vero) [nM] | EC50 (HSV-1) [nM] | EC50 (HIV-1 AD8 WT) [nM] | SI (Selectivity Index) (human CD4+ T lymphocytes) | CC50 [2] [nM] | EC50 [3] [nM] | effect of FBS concentration on antiviral activity (HIV-1 AD8)
1 | O=C(O)c1ccc(-c2ccc(/C=C3\SC(=S)N(Cc4ccc(F)cc4)C3=O)o2)cc1O [Compound 1] | without any antiviral activity on HPV-16 |  |  |  |  |  |  |  | 
2 | O=C(O)c1ccc(-c2ccc(/C=C3\SC(=S)N(Cc4ccc(Cl)cc4)C3=O)o2)cc1O [Compound 2] | without any antiviral activity on HPV-16 | about 100% | 132 | 131 ± 59.9 | 11 ± 1 | 62 | 810 ± 20 | 8 ± 3 | progressive loss of activity
